Measured values as given in ChEMBL document CHEMBL1201862, “PubChem BioAssay data set” (2004).
Calls of active or inactive are those of the source.

Columns and labels:
[1] = viability of HCT116 lacking mutant beta-catenin – cell-based, human colon tumor, dose response (AID 1045); format: functional;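 further: HCT116 colon tumor cells with beta catenin knocked out; cells exposed to compound for 60 hours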
[2] = viability of PTEN-deleted HCT116 cells – cell-based, HCT116 PTEN knockout, dose response (AID 1047); format: functional;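 further: HCT116 colon tumor cells with PTEN knocked out; cells exposed to compound for 60 hours before readout; potency for loss of cell viability measured by luminescence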
Large T antigen = Large T antigen (Simian virus 40, UniProt P03070); format: functional, Betapolyomavirus macacae;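 further: Confirmatory-stage PubChem screen for compounds that inhibit SV40 T antigen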
Large T antigen, sequence (P03070 whole entry): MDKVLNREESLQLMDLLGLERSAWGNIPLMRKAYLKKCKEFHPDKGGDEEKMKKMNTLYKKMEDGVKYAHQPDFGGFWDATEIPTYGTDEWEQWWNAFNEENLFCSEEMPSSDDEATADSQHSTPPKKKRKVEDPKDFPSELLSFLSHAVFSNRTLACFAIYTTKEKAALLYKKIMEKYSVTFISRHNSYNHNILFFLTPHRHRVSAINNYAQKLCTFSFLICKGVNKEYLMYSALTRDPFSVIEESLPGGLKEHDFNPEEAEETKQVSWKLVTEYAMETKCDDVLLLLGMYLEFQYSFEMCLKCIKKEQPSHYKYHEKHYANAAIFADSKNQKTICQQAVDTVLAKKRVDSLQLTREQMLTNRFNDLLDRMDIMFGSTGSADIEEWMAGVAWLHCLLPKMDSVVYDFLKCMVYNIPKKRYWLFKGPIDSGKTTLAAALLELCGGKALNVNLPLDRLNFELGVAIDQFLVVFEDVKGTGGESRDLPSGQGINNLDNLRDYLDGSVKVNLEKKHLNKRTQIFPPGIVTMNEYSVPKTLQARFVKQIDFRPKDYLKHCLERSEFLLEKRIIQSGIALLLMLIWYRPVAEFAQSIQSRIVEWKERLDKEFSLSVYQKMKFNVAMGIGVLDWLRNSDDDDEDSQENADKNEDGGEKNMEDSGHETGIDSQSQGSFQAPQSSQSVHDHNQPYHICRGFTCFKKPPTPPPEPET

[3] = viability of uninfected HEp-2 cells – cell-based, HTS, cytotoxicity control for RSV inhibitor project, dose response (AID 2410); format: functional; details: human respiratory syncytial virus
[4] = target: T1, Calpain-2 catalytic subunit (Sus scrofa, UniProt P43367); test: m-calpain protease blockers, concentration series – biochemical, fluorogenic peptide substrate, dose response (AID 1420); format: functional
T1 sequence (P43367 whole entry): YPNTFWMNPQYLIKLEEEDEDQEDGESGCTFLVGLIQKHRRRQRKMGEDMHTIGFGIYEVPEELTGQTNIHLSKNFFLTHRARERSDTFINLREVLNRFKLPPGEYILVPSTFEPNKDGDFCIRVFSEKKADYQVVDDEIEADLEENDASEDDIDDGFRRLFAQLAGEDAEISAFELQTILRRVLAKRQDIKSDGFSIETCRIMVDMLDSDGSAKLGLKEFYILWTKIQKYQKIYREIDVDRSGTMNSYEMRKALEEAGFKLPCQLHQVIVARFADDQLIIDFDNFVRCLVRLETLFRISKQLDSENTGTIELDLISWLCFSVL

[5] = fluconazole-exposed Candida albicans growth modulators – fluorescence, retest, confirmation (AID 2467); format: functional, cell-based
[6] = NIH-3T3 fibroblast cytotoxicity, dose response, cytotoxicity control, cell-based, fluorescence, Alamar Blue, secondary assay (AID 2327); format: functional;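 further: NIH-3T3 mouse fibroblasts cultured with fluconazole at 8 µg/mL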
[7] = target: T2, Carboxy-terminal domain RNA polymerase II polypeptide A small phosphatase 1 (Homo sapiens, UniProt Q9GZU7); test: CTDSP1 inhibitors, concentration-response, biochemical, absorbance readout, ultra-high-throughput screen actives (AID 540297); format: functional
T2 sequence (Q9GZU7 whole entry): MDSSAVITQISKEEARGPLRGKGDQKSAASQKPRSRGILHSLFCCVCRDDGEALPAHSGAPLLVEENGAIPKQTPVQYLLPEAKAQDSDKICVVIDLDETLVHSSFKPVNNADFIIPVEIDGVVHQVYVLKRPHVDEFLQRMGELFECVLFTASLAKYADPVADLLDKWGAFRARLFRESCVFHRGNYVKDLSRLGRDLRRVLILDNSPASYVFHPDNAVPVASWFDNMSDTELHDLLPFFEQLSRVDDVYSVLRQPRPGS

[8] = target: T3, RNA-binding protein pos-1 (Caenorhabditis elegans, UniProt G5EF15); test: disruptors of C. elegans POS-1 RNA interaction – biochemical, fluorescence polarization, dose response (AID 1964);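 further: purified POS-1 fused to maltose binding protein made in E. coli; potency of compounds blocking POS-1 binding to fluorescent RNA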
T3 sequence (G5EF15 whole entry): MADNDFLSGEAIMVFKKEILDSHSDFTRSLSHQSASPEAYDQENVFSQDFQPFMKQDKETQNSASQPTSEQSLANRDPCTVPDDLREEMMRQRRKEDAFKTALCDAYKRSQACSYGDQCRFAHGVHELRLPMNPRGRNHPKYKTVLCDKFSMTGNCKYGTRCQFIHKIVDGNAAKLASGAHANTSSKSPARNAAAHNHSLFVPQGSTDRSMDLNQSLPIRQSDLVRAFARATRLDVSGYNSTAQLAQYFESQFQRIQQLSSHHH

[9] = target: T4, Zinc finger protein mex-5 (Caenorhabditis elegans, UniProt Q9XUB2); test: potency of MEX-5 RNA-binding blockers – biochemical, C. elegans, fluorescence polarization, dose response (AID 1960)
T4 sequence (Q9XUB2 whole entry): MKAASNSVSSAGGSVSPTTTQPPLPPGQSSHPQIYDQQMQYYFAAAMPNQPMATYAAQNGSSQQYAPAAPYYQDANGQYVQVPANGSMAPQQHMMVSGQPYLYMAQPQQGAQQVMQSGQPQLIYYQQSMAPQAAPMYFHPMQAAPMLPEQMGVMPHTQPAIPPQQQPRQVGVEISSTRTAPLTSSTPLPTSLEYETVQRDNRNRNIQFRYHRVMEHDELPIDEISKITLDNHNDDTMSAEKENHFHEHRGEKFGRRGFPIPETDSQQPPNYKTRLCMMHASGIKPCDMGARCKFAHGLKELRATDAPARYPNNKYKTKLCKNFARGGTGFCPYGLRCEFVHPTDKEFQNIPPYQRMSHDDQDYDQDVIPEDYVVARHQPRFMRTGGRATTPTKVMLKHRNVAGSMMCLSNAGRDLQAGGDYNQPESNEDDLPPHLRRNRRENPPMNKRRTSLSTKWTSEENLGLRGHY

H4 = test: Luminescence Cell-Based Dose Response HTS to Identify Activators of 5'UTR Stem-Loop Driven Prion Protein mRNA Translation in H4 Neuroglioblastoma Cells. [Related pubchem assays: 1829 (Project Summary), 1814 (Primary HTS)]; format: functional; details: Homo sapiens
[10] = Luminescence Cell-Based Dose Response HTS to Identify Activators of Luciferase Translation or Activity in H4 […] Cells. [Related pubchem assays: 1829 (Project Summary), 1814 (Primary HTS)]; format: functional
Protein skinhead-1 = target: T5, Protein skinhead-1 (Caenorhabditis elegans, UniProt P34707); format: functional
T5 sequence (P34707 whole entry): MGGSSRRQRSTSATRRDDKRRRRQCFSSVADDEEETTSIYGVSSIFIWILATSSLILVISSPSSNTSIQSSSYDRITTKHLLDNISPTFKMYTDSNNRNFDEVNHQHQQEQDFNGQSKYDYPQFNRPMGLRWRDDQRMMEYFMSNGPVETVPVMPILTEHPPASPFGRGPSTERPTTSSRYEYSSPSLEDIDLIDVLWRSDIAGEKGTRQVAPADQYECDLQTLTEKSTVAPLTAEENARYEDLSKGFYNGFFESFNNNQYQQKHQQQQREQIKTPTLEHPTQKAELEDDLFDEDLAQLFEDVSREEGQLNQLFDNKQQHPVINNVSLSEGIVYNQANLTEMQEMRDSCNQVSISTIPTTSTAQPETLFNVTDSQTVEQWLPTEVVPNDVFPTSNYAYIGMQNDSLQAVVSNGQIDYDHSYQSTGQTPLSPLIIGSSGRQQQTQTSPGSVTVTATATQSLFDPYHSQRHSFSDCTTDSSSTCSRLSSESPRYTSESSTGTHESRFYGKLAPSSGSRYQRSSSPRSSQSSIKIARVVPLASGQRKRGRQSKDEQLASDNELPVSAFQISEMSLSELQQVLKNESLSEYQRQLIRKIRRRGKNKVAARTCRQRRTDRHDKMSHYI

cells = format: functional
[11] = intracellular Trypanosoma cruzi inhibitors in host cells – cell-based, plate reader, cherry-pick samples, set 3, dose response (AID 651818); format: functional;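 further: compounds incubated with infected cells for about four days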
Paired box protein Pax-8 = Paired box protein Pax-8 (Homo sapiens, UniProt Q06710); test: PAX8 transcriptional activity inhibition in RMG-I – RMG-I cells, luciferase, cherry-pick, dose response (AID 687027); format: functional, cell-based;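 further: luciferase reporter driven by Pax8 target thyroperoxidase promoter measured by SteadyGlo luminescence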
Paired box protein Pax-8, sequence (Q06710 whole entry): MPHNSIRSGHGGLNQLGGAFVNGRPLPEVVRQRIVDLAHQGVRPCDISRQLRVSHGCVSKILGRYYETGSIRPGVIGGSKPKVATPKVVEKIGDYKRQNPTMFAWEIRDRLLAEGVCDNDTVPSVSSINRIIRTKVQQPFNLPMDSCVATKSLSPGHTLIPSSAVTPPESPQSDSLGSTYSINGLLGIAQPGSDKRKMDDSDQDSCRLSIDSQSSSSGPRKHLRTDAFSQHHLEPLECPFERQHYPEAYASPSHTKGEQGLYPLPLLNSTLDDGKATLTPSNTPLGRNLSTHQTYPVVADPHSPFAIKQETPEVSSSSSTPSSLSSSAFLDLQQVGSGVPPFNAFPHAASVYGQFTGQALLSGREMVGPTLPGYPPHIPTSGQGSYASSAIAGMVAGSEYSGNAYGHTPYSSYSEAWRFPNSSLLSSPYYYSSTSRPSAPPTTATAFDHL

## COc1cccc(C(=O)Oc2ccccc2/C=C\C(=O)c2cc3ccccc3o2)c1
[1]
  EC50: 6.66 µM (active)
[2]
  EC50: 7.8 µM (active)

## CNC(=O)Oc1ccc2ncccc2c1
Large T antigen
  IC50: > 100 µM (active)

## COC(=O)C1=C(C)N(c2ccc(F)c(Cl)c2)C(=O)C1
[1]
  EC50: 206 µM (active)

## CCC(C)c1ccc(NC(=O)Nc2cccnc2)cc1 (configuration not stated)
[3]
  CC50: 22.7 µM (active)

## CCOC(=O)N1CCN(c2ccc([N+](=O)[O-])cc2)CC1
[3]
  CC50: 26 µM (active)
[4]
  IC50: 30.7 µM (not active)

## Oc1[nH]c2c(Cl)cc(Cl)cc2c1N=NC(S)=NCC1CCCO1 (configuration not stated)
[5]
  EC50: 3.03 µM (active)
[6]
  EC50: 19.8 µM (inconclusive)
[1]
  EC50: 1.22 µM (active)
[2]
  EC50: 1.67 µM (active)

## C[n+]1cnc(-c2ccccc2)cc1-c1ccccc1
[7]
  IC50: 3.35 µM (active)

## Oc1[nH]c(S)nc2nc(S)nc1-2
[8]
  EC50: 32 µM (active)
[9]
  EC50: 8.3 µM (active)
Large T antigen
  IC50: 27.2 µM (active)

## CCOc1nc(-c2ccc(OC)cc2)ccc1-c1noc(-c2cc(OC)c(OC)c(OC)c2)n1
[1]
  EC50: 25.5 µM (active)
[2]
  EC50: 21.1 µM (active)

## COc1cc2ccccc2cc1C(=O)Nc1nccs1
H4
  EC50: 22.8 µM (active)
[10]
  EC50: 59.4 µM (active)
Protein skinhead-1
  IC50: 5.97 µM (active)

## CCCCC(=O)Nc1cccc(-c2csc(-c3ccccc3)n2)c1
[3]
  CC50: 23.9 µM (active)

## COc1ccc2c(c1)CC/C(=C/c1ccco1)C2=O
Protein skinhead-1
  IC50: 28.9 µM (active)

## C=CCn1c(=S)[nH]c2scc(-c3ccco3)c2c1=O
Large T antigen
  IC50: 24.1 µM (active)

## CCOc1cc(C=O)cc(N=Nc2cccc([N+](=O)[O-])c2)c1O
[5]
  EC50: 4.04 µM (active)
[6]
  EC50: > 150 µM (inactive)
cells
  IC50: 7.46 µM (active)

## CCC(=O)Nc1cccc(-c2nc3ccc(C)cc3o2)c1
[3]
  CC50: 39.4 µM (active)

## COc1ccc(Cl)cc1NC(=O)C(C)OC(=O)c1ccc(NS(=O)(=O)c2ccc3[nH]c(O)nc3c2)cc1 (configuration not stated)
[3]
  CC50: 15.8 µM (active)

## COc1ccc(N2C(=O)/C(=C/c3ccc([N+](=O)[O-])cc3)C=C2c2ccccc2)cc1
Protein skinhead-1
  IC50: > 100 µM (inactive)

## O=S(=O)(c1ccccc1)N1CCC(c2nc(O)c3nnn(Cc4c(F)cccc4Cl)c3n2)CC1
[3]
  CC50: 26 µM (active)

## CCOc1ccccc1C(=O)Nc1cc2c(cc1N1CCCC1)n(CC)c(=O)n2CC
[3]
  CC50: 13.5 µM (active)

## O=C(COC(=O)/C=C/c1ccco1)Nc1ncc(Cl)cc1Cl
[7]
  IC50: 17 µM (active)

## CCCCCOc1ccccc1C(=O)NCCC(=O)O
Protein skinhead-1
  IC50: > 100 µM (inactive)

## CC(=O)Oc1cc2c(C(=O)NCCCN3CCOCC3)c(C)oc2c2ccccc12
[1]
  EC50: 4.45 µM (active)
[2]
  EC50: 3.79 µM (active)

## Fc1ccc(OCc2nc(-c3cccs3)no2)cc1
Protein skinhead-1
  IC50: 24.5 µM (active)

## O=C1c2ccccc2C(=O)N1CCCCN(C(=O)c1cccc([N+](=O)[O-])c1)c1ccc(Cl)cc1
[3]
  CC50: 43.7 µM (active)

## C=CCNC(=O)COC(=O)c1c2c(nc3ccccc13)CCC2
[7]
  IC50: 7.39 µM (active)

## Nc1cc(S(=O)(=O)c2ccc(O)c(N)c2)ccc1O
Large T antigen
  IC50: 20.5 µM (active)

## COc1ccc(N2C(=O)/C(=C/c3ccc(C)o3)C(=O)NC2=S)c(OC)c1
[8]
  EC50: > 300 µM (not active)
[9]
  EC50: 41.3 µM (active)
Large T antigen
  IC50: 34.3 µM (active)

## O=C(CSc1oc(-c2ccc(F)cc2)nc1S(=O)(=O)c1ccc(F)cc1)NCC1CCCO1 (configuration not stated)
[1]
  EC50: 13.6 µM (active)
[2]
  EC50: 10.2 µM (active)

## Cc1ccccc1-c1noc(-c2cccs2)n1
Protein skinhead-1
  IC50: 7.91 µM (active)

## Cc1cccc(C(=O)OCC(=O)c2ccc(CC(=O)N3CCOCC3)s2)c1C
[7]
  IC50: 6.46 µM (active)

## Cc1ccc2ncnc(Nc3cccc([N+](=O)[O-])c3)c2c1
Protein skinhead-1
  IC50: > 100 µM (inactive)

## CCCC(C(=O)Nc1ccc(S(=O)(=O)N2CCOCC2)cc1)c1ccccc1 (configuration not stated)
Protein skinhead-1
  IC50: > 100 µM (inactive)

## CCC(C(=O)N(C(C)C)C(C)C)c1ccccc1 (configuration not stated)
Protein skinhead-1
  IC50: > 100 µM (inactive)

## C[C@H](CO)N1C[C@H](C)[C@@H](CN(C)Cc2ccc(Oc3ccccc3)cc2)Oc2ccc(N(C)C)cc2C1=O
[11]
  AC50: 2.27 µM (active)

## C[C@H]1CN([C@@H](C)CO)C(=O)c2cccc(NC(=O)CCCCCC(=O)Nc3ccccc3N)c2O[C@@H]1CN(C)CC1CCCCC1
[11]
  AC50: 1.95 µM (active)

## C[C@H](CO)N1C[C@H](C)[C@H](CN(C)Cc2ccc(C(=O)Nc3ccccc3N)cc2)Oc2ccc(NS(=O)(=O)c3ccc(F)cc3)cc2CC1=O
[11]
  AC50: 2.64 µM (active)

## Cc1ccc(S(=O)(=O)N(C)C[C@H]2Oc3ccc(NC(=O)Nc4cccc5ccccc45)cc3CC(=O)N([C@@H](C)CO)C[C@H]2C)cc1
[11]
  AC50: 4.81 µM (active)

## C[C@@H]1CN([C@@H](C)CO)C(=O)c2cccc(NC(=O)c3ccncc3)c2O[C@@H]1CN(C)Cc1ccc(Cl)c(Cl)c1
[11]
  AC50: 1.31 µM (active)

## COc1ccc(NC(=O)Nc2ccc3c(c2)CC(=O)N([C@H](C)CO)C[C@@H](C)[C@@H](CN(C)Cc2ccc(Oc4ccccc4)cc2)O3)cc1
[11]
  AC50: 2.09 µM (active)
Paired box protein Pax-8
  AC50: 23.5 µM (active)

## COc1ccc(S(=O)(=O)Nc2ccc3c(c2)C(=O)N([C@H](C)CO)C[C@H](C)[C@H](CN(C)Cc2ccc(C(F)(F)F)cc2)OCCCC[C@@H](C)O3)cc1
[11]
  AC50: 3.2 µM (active)

## C[C@@H]1CN([C@@H](C)CO)C(=O)c2cccc(NC(=O)Nc3ccc(C(F)(F)F)cc3)c2O[C@@H]1CN(C)S(=O)(=O)c1ccc(Cl)cc1
[11]
  AC50: 2.79 µM (active)

## C[C@@H]1CN([C@H](C)CO)C(=O)Cc2cc(NC(=O)NC3CCCCC3)ccc2O[C@H]1CN(C)Cc1ccc(C(=O)Nc2ccccc2N)cc1
[11]
  AC50: 5.26 µM (active)

## C[C@@H]1CCCCO[C@H](CN(C)Cc2ccc(C(F)(F)F)cc2)[C@@H](C)CN([C@H](C)CO)C(=O)c2cc(NC(=O)Nc3ccc(C(F)(F)F)cc3)ccc2O1
[11]
  AC50: 3.15 µM (active)

## O=C(C/C=N\OCc1ccc([N+](=O)[O-])cc1)Nc1ccccc1
cells
  IC50: 16.1 µM (active)

## O=C(Cc1nnc(NC(=O)c2ccccc2)s1)N/N=C/c1ccc(O)cc1
[7]
  IC50: 8.5 µM (active)
